Consider three compounds from paper PMC3361267 (Journal of Medicinal Chemistry, 2012).

Molecules are shown by their SMILES.

Data set [1] relates to BCRP. Particulars: read-out: IC50 (BCRP); cited from earlier work.
Data set [2] relates to MRP2. The following applies: read-out: IC50 (MRP2); cited from earlier work.
The subject of data set [3] is MDR1. The following applies: read-out: IC50 (MDR1); cited from earlier work.
For data set [4] the following is noted: cited from earlier work.
For data set [5], the target named is T1, OATP1B3 (Homo sapiens, UniProt Q9NPD5).
T1 sequence (Q9NPD5 1-702): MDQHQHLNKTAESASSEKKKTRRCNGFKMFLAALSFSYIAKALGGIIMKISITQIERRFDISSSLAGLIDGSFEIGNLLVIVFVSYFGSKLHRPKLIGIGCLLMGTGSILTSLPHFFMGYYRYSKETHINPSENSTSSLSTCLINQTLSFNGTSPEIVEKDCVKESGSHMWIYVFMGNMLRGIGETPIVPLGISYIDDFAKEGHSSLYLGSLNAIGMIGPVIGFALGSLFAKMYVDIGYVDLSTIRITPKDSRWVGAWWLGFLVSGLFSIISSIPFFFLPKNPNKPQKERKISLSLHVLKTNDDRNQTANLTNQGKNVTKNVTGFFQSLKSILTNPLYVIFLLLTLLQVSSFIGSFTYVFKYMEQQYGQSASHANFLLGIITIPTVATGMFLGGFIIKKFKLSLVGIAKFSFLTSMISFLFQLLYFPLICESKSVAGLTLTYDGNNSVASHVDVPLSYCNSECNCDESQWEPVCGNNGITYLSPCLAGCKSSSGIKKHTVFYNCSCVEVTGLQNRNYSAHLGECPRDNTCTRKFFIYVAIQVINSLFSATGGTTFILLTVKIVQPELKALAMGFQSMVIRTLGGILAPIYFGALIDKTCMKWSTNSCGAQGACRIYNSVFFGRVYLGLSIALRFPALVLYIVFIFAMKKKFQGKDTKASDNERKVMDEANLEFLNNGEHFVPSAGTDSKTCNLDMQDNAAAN

The target in data set [6] is T2, OATP1B1 (Homo sapiens, UniProt Q9Y6L6).
T2 sequence (Q9Y6L6 1-691): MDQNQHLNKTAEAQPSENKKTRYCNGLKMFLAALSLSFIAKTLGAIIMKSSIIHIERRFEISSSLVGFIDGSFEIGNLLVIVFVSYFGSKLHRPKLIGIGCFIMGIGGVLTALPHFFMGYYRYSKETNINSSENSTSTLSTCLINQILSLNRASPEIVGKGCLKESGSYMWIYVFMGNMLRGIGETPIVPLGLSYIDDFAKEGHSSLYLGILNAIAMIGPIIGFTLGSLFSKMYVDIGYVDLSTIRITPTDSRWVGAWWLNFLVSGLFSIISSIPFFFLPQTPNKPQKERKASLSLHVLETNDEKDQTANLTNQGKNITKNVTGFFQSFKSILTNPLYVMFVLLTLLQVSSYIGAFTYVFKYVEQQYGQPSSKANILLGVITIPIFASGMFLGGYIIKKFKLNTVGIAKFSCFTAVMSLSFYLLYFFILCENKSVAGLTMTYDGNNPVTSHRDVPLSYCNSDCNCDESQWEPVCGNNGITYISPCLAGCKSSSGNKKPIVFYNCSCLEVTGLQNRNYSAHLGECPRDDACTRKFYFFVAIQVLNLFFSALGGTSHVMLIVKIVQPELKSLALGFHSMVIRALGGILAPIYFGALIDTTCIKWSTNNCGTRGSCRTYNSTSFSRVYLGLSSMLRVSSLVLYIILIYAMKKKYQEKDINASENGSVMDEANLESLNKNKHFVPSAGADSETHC
In words: Transport kinetics of substrate uptake in OATP1B1-HEK293 cells. The following applies: OATP1B1 mediated uptake. It counts as cell-based.

Take `CN(C)C(=O)CCSC(SCCC(=O)O)c1cccc(/C=C/c2ccc3ccc(Cl)cc3n2)c1` (stereo not shown) [MK571]: the IC50 (as a rule, the point on the concentration scale where inhibition reaches its midpoint) in data set [1] is 50 µM; in data set [2] it was 10 µM; in data set [3] it was 26 µM.

As to `CC[C@H]1OC(=O)[C@H](C)[C@@H](O[C@H]2C[C@@](C)(OC)[C@@H](O)[C@H](C)O2)[C@H](C)[C@@H](O[C@@H]2O[C@H](C)C[C@H](N(C)C)[C@H]2O)[C@](C)(OC)C[C@@H](C)C(=O)[C@H](C)[C@@H](O)[C@]1(C)O` [clarithromycin, Clarithromycin], in data set [4], the “increase of atorvastatin AUC” value was 4.5 fold.

With `C[C@]12CC[C@@H]3c4ccc(O)cc4CC[C@H]3[C@@H]1CC[C@@H]2O[C@@H]1O[C@H](C(=O)O)[C@@H](O)[C@H](O)[C@H]1O` [estradiol-17β-glucuronide], the Vmax/Km in data set [5] stood at 0.86 μL/mg protein/min. For the same compound, in data set [6], the Km (usually the substrate concentration at which the rate is half of its maximum) is 12.2 ± 5.94 µM and the Vmax was 15.44 ± 3.44 pmol/mg protein/min.
